In publication PMC6316600, “Analgesic Activity of Acid-Sensing Ion Channel 3 (ASIС3) Inhibitors: Sea Anemones Peptides Ugr9-1 and APETx2 versus Low Molecular Weight Compounds” (Marine Drugs, 2018):
Bridge positions count the residues as written; N and C are the ends. Ends that are not written are not given here.

Columns and labels:
[1] = test system: ASIC3; details: cited from earlier work
Text: (§1) An inhibition of ASIC3 was reported to be an attractive approach to producing analgesia. […] Other nonspecific substances can also influence ASIC3 activity.

[2] = test system: CFA-induced thermal hyperalgesia; details: rats; cited from earlier work
Procedure: An inhibition of ASIC3 was reported to be an attractive approach to producing analgesia. […] Other nonspecific substances can also influence ASIC3 activity. […] Several ligands with inhibitory properties were found for this receptor, each of which was able to induce analgesia in animal tests. The most well-known inhibitor APETx2 in various studies has been tested on models of acid-induced muscle pain model, CFA-induced inflammatory pain model (at doses of 0.07, 0.22 and 2.2 µM). Ugr9-1 was studied in models of CFA-induced thermal hyperalgesia and acetic acid writhing test (at doses of 0.5, 0.1, and 0.01 mg/kg). […] The nonspecific actions on other cellular targets and the changes of ASIC3 involvement in the inflammatory process induced by the high antagonists’ concentration for 2 h are suspected. We conclude that the inhibition of both components of ASIC3 currents could be beneficial but could be reversed by hormesis in high doses and during a long exposure to ...

[3] = test system: animal models of pain; details: cited from earlier work
[4] = test system: proton-gated currents in DRG neurons; design: method as in PMID 25395088; details: cited from earlier work
[5] = test system: voltage-gated Na^+-channels; design: method as in PMID 22648244; details: cited from earlier work
[6] = test system: ASIC1b; details: cited from earlier work
Text: as §1

[7] = test system: ASIC1a; details: cited from earlier work
Text: as §1

[8] = target: T1, human ASIC3 (Homo sapiens, UniProt Q9UHC3); assay: Inhibition of transient hASIC3 current, two-electrode voltage clamp, Xenopus laevis oocytes; assay type: cell-based
T1 construct: host or cells: Xenopus laevis oocytes (cRNA injection)
T1 sequence (Q9UHC3 1-531): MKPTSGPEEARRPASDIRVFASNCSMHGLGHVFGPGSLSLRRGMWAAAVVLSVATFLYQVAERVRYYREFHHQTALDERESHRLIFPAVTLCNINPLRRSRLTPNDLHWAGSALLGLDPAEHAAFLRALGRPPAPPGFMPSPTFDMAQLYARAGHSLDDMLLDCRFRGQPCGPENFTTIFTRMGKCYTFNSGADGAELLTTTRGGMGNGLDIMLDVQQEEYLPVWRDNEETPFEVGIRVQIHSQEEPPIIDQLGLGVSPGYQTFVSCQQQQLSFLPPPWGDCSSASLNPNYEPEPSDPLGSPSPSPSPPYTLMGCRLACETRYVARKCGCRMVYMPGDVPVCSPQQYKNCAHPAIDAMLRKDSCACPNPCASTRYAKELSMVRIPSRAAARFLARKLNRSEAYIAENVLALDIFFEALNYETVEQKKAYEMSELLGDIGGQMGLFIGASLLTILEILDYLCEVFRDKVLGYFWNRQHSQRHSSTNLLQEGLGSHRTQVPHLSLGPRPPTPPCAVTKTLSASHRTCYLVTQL
Procedure: The activity of ligands was checked on human ASIC3 (hASIC3) channels expressed in Xenopus laevis oocytes. […] Two different protocols were used to reveal the effects of ligands on sustained and transient components of acid-induced hASIC3 currents. The influence of the compounds on the transient current amplitude was estimated after preincubation for 15 s before the activation in a low alkali bath solution (pH 7.8), which ensured an absence of steady-state desensitization for the transient current (Figure 1A). The compounds’ inhibition effectiveness was calculated using the value of maximal amplitudes. […] The inhibitory effect was concentration-dependent and fit well using a logistic equation.
Figure 1 Comparison of ligands’ antagonistic effects on hASIC3 channels. Whole-cell currents were induced by pH drops and recorded at the holding potential −50 mV. (A) Effect of ligands on the transient component of current at conditioning pH 7.8. The control trace is shown first; (B) Effect of ligands on the sustained component at conditioning pH 7.3. The black line is the control trace, and the red line is the trace of activation in the presence of a ligand. Dose-response curves for transient (C) and sustained (D) currents’ inhibitions are shown. Data are shown as mean ± SEM (n = 4–6) and fitted with the logistic equation (solid lines).
X. laevis oocytes were removed surgically and defolliculated by collagenase (Sigma-Aldrich, Moscow, Russia). Oocytes were injected with 2.5 to 10 ng of human ASIC3 cRNA (AF057711.1). The cRNA transcripts were synthesised from a NaeI-linearized ASIC3 cDNA template (pcDNA3.1+humanASIC3 subcloned from clone EX-Q0260- B02 (GeneCopoeia, Inc., Rockville, MD USA) using a HiScribe T7 High Yield RNA Synthesis Kit (New England Biolabs, Ipswich, MA, USA) according to the manufacturer’s protocol for capped transcripts. After the injection, oocytes were kept for 3 to 6 days at 19° in a ND-96 medium containing (in mM) 96 NaCl, 2 KCl, 1.8 CaCl2, 1 MgCl2, and 5 HEPES titrated to pH 7.4 with NaOH supplemented with gentamycin (50 µg/mL). Two-electrode voltage clamp recordings were performed using a GeneClamp 500 amplifier (Axon Instruments, Union City, CA, USA), and the data were filtered at 20 Hz and digitized at 100 Hz by an AD converter L780 (LCard, Moscow, Russia) using in-house software. To induce transient and/or sustained currents, two different protocols with different conditioning pH were used. Microelectrodes were filled with a 3 M KCl solution. The working buffer solution was ND-96 titrated by NaOH to pH 7.8 or 7.3. The solution for the pH shift was constructed based on the ND-96 solution, in which 5 mM HEPES was replaced with 10 mM acetic acid (pH 4.0) or 10 mM MES (pH 5.5) in a supplementary 0.1% BSA solution. The duration of the activation pulses was 3.5 s.
The analysis of the electrophysiological data was performed using the OriginPro 8.6 programme.

[9] = test system: hERG channels; details: cited from earlier work
Procedure: Moreover, APETx2 potentiates rat ASIC1b and ASIC2a at concentrations of 3–10 µM (30–100-fold higher than its ASIC3 inhibitory concentration), which may have implications for its use in in vivo experiments ...

[10] = test system: mice; assay: Open field test; assay type: in vivo, CD-1 mice; details: 1 mg/kg intramuscular, 4 h before; n = 6–7
Procedure: An open field test was carried out on mice to estimate the possible sedative effects of compounds administration. No statistically significant changes were detected between ASIC3 antagonist-treated groups and the control animals group in 5-min observations of 12 parameters.
Figure 2 Open field experiments on mice. Administration of compounds at a 1 mg/kg dose intramuscularly was done 4 h before of the measurements. (A) Travelling distance and (B) locomotion activity presented as mean ± SEM for 5-min recording period (n = 6–7).
Adult male CD-1 mice (Animal Breeding Facility Branch of Shemyakin-Ovchinnikov Institute of Bioorganic Chemistry, Russian Academy of Sciences, Pushchino, Russia) weighing 20–25 g were used. Animals that originally passed clinical examination that confirmed no deviations in health were divided into groups (at least eight male mice per group) using the principle of randomization. The average body weight of animals in each group was not statistically different between groups. Animals were housed at room temperature (23 ± 2 °C) and subjected to a 12-h light-dark cycle with food and water available ad libitum. All experiments were performed after receiving approval from the Animal Care and Use Committee of the Branch of the Institute of Bioorganic Chemistry, Russian Academy of Sciences (IBCh RAS) (Pushchino, Russia Federation). The samples were administered intramuscularly 2 h before testing (4 h in the open field test). The initial dose of 1 mg/kg was investigated for all samples, which was further reduced 5, 50, and 500 times for peptides.
In the locomotion measurements, exploration and anxiety were evaluated in the motor activity test on a computerized TSE Multi Conditioning System (TSE Systems GmbH, Bad Homburg, Germany). Four hours after the administration of the sample, the measurement was made, which lasted for 3 min. […]
The data significance in animal tests was determined by an analysis of variance followed by a Tukey’s test. […]

In the case of CC(C)C1c2cc(C3CC3c3ccc4cc(C(=N)N)ccc4c3)ccc2CCN1C (stereo not drawn) [A-317567], the “Inhibition of ASIC3 sustained and transient currents” value [1] is listed as “blocked ASIC3’s sustained and transient currents” and the “Analgesic effect, CFA inflammatory thermal hyperalgesia” value [2] is listed as “produced an analgesic effect”.

For COc1cc2c(cc1OC)[C@@H]1Cc3ccc(OC)c(OC)c3CN1CC2 [Levo-tetrahydropalmatine, reference compound], the “Nociceptive response to intraplantar acetic acid” value ([3]; rats) is given as “inhibited the nociceptive response to intraplantar acetic acid injections” and the “Effect on amplitude of proton-gated currents” value [4] is given as “decreased the amplitude of proton-gated currents”.

In the case of N=C(N)NC(=O)c1nc(Cl)c(N)nc1N [amiloride], the “Inhibition of ASICs / ASIC3” value [1] is listed as “nonspecific inhibitory effect on ASICs”.

For COc1ccc2ccc(=O)oc2c1CC=C(C)C [osthol], the “Inhibition of ASIC3” value [1] is given as “inhibit ASIC3” and the “Block of voltage-gated Na+-channels” value [5] is given as “block voltage-gated Na^+-channels”.

For O=C(O)c1ccccc1O [salicylic acid], the “Inhibition of ASIC3 / ASICs currents” value ([1]; sensory neurons and heterologous-expressed ASIC3) is given as “inhibit ASICs currents directly on sensory neurons and heterologous-expressed ASIC3 channels”.

For CCCCNc1ccc(C(=O)OCCN(C)C)cc1 [tetracaine], the “Inhibition of ASIC1b currents” value [6] is listed as “inhibited the ASIC1a and ASIC1b currents”, the “Inhibition of ASIC1a currents” value [7] is listed as “inhibited the ASIC1a and ASIC1b currents” and the “Inhibition of transient ASIC3 currents” value ([1]; dependence on extracellular pH) is listed as “inhibit the transient ASIC3 currents in a concentration-dependent manner”.

In the case of “GTACSCGNSKGIYWFYRPSCPTDRGYTGSCRYFLGTCCTPAD (disulfide 4-37, 6-30, 20-38) [APETx2]”, the IC50 [8] is given as 0.344 ± 0.08 µM, the “Inhibition of hERG channels” value [9] is given as “reducing the maximal current amplitude and shifting the voltage dependence of activation to more positive potentials” and the “Travelled distance, time spent freezing, distance in the central area versus control” value [10] is given as “each of these differences was nonsignificant”.

In the case of “psalmotoxin 1 (EDCIPKWKGCVNRHGDCCEGLECWKRRRSFEVCVPKTPKT; UniProt P60514 1-40, looked up) [reference compound]”, the “Analgesic effect by blockade of ASIC1a in CNS” value ([3]; CNS) is given as “activation of the endogenous enkephalin pathway and potent analgesic effects”.
